We go through 10 compounds from US7030267B2, “Cycloproply β-amino acid derivatives” (Warner-Lambert Company, LLC, priority 2003, dated 2006).

Each structure is given as a SMILES string. Where only a bound is given, the exact number is not on record here.

As for `CC1(C)CC1(CN)C(=O)O` (stereo not shown), the melting point (commonly the temperature, or range, at which the solid turns liquid) was 254 to 256 °C.

In turn, `CCC(CC)C1CC1(CN)C(=O)O` (stereo not shown) registered a melting point of 255 to 257 °C.

Consider `NCC1(C(=O)O)CC1C1CCCCC1` (stereo not shown), for which the melting point is 270 °C (dec.).

In the case of `NCC1(C(=O)O)CC12CCCC2` (stereo not shown), the melting point was 231 to 235 °C (dec.).

`CC(C)C1CC1(CN)C(=O)O.Cl` (stereo not shown): the melting point lay in the range of 245 to 246 °C.

As to `CCCC1(CCC)CC1(CN)C(=O)O` (stereo not shown), the melting point is 255 to 257 °C.

As to `Cl.NCC1(C(=O)O)CC12CCCCC2` (stereo not shown) [Example 1, 1-AMINOMETHYL-SPIRO[2.5]OCTANE-1-CARBOXYLIC ACID HYDROCHLORIDE], the melting point is > 250 °C (dec.).

For the compound `CC(C)CC1CC1(CN)C(=O)O.Cl` (stereo not shown) [Example 6, 1-AMINOMETHYL-2-ISOBUTYL-CYCLOPROPANECARBOXYLIC ACID HYDROCHLORIDE], the melting point is > 220 °C (dec.).

Turning to `Cl.NCC1(C(=O)O)CC12CCCCC2` (stereo not shown) [Example 14], the melting point fell in the range of 240 to 242 °C.

`CC(C)CC1CC1(CN)C(=O)O.Cl` (stereo not shown) [Example 15] showed a melting point of 254 to 255 °C.
